Assay results: ChEMBL document CHEMBL3991601, “The target landscape of clinical kinase drugs” (Science, 2017)
Calls of active or inactive are those of the source.

What was measured:
[1] = target: DnaJ homolog subfamily A member 1 (Homo sapiens, UniProt P31689)
[2] = target: T1, Dual specificity mitogen-activated protein kinase kinase 3 (Homo sapiens, UniProt P46734)
T1 sequence (P46734 whole entry): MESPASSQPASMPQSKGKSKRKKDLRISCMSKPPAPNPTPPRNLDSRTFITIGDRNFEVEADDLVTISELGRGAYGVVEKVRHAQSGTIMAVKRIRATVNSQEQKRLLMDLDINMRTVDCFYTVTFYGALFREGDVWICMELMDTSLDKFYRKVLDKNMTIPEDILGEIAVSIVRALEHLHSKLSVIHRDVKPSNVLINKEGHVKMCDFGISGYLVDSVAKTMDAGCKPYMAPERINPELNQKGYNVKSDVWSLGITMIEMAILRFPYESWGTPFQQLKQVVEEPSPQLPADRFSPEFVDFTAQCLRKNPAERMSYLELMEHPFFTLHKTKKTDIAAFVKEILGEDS

[3] = target: T2, ATP-dependent 6-phosphofructokinase, platelet type (Homo sapiens, UniProt Q01813)
T2 sequence (Q01813 whole entry): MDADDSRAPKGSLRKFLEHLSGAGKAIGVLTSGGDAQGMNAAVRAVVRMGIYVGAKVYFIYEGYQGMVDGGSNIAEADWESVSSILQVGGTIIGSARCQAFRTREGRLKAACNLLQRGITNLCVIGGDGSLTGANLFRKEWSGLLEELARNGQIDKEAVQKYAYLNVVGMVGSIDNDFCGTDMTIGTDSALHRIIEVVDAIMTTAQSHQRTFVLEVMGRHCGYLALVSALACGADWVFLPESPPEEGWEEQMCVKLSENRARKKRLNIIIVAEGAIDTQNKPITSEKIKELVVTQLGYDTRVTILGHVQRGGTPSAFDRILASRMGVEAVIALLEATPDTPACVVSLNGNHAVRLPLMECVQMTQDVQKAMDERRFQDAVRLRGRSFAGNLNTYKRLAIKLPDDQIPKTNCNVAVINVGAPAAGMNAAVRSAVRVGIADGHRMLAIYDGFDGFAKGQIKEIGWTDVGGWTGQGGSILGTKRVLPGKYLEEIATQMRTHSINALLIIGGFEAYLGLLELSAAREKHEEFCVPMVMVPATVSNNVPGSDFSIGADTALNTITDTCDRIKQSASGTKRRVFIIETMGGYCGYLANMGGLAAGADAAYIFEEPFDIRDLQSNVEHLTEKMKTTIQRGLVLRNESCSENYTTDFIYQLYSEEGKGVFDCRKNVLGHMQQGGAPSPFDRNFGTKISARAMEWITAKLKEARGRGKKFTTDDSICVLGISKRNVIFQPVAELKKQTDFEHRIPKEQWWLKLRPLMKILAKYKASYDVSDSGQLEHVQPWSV

[4] = target: cAMP-dependent protein kinase catalytic subunit beta (Homo sapiens, UniProt P22694)
[5] = target: T3, Ras-related protein Rab-10 (Homo sapiens, UniProt P61026)
T3 sequence (P61026 whole entry): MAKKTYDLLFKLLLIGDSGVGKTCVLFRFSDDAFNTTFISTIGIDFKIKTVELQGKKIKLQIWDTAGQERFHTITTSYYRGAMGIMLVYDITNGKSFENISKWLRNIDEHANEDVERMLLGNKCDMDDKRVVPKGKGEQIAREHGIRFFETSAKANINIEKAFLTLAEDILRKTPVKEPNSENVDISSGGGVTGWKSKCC

[6] = target: T4, Serine/threonine-protein kinase ULK3 (Homo sapiens, UniProt Q6PHR2)
T4 sequence (Q6PHR2 whole entry): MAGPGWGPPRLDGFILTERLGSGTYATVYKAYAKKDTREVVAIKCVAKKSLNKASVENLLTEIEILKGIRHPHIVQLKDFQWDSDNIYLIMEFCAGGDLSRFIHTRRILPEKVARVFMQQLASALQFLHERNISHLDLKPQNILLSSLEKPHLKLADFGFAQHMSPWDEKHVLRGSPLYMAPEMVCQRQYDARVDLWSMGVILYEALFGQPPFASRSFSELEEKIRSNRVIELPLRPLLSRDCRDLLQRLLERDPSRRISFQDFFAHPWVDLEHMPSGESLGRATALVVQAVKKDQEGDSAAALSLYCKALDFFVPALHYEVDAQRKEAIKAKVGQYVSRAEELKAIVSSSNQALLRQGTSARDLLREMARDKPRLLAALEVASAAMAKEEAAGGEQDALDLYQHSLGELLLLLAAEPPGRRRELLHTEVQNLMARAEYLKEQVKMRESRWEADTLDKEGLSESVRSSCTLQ

[7] = target: Maternal embryonic leucine zipper kinase (Homo sapiens, UniProt Q14680)
Sequence of Maternal embryonic leucine zipper kinase (Q14680 whole entry): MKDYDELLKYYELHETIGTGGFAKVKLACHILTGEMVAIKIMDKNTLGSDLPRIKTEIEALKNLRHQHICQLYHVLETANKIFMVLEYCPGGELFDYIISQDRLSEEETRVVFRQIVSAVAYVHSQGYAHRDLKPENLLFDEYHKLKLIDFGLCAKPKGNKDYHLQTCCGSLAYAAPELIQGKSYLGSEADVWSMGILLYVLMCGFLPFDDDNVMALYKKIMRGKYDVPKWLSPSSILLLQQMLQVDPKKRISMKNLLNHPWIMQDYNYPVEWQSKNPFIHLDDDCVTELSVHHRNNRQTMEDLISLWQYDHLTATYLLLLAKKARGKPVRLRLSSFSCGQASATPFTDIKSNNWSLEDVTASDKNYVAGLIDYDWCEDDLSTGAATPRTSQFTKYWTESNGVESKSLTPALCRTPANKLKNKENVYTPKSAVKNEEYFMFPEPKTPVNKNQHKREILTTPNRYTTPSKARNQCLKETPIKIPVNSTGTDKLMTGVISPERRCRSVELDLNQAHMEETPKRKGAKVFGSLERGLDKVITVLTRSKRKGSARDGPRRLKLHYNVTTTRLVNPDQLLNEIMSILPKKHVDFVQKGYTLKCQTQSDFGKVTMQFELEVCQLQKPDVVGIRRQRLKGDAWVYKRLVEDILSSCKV

[8] = target: Macrophage-stimulating protein receptor (Homo sapiens, UniProt Q04912)
Sequence of Macrophage-stimulating protein receptor (Q04912 25-304 limits assumed): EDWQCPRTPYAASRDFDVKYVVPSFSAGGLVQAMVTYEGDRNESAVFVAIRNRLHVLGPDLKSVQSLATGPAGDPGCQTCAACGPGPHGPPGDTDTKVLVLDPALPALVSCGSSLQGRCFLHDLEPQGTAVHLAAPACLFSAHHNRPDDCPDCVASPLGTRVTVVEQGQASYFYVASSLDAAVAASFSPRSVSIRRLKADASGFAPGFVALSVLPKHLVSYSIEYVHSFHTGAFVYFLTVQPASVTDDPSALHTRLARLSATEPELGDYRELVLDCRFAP
Sequence of Macrophage-stimulating protein receptor (Q04912 310-1400 limits assumed): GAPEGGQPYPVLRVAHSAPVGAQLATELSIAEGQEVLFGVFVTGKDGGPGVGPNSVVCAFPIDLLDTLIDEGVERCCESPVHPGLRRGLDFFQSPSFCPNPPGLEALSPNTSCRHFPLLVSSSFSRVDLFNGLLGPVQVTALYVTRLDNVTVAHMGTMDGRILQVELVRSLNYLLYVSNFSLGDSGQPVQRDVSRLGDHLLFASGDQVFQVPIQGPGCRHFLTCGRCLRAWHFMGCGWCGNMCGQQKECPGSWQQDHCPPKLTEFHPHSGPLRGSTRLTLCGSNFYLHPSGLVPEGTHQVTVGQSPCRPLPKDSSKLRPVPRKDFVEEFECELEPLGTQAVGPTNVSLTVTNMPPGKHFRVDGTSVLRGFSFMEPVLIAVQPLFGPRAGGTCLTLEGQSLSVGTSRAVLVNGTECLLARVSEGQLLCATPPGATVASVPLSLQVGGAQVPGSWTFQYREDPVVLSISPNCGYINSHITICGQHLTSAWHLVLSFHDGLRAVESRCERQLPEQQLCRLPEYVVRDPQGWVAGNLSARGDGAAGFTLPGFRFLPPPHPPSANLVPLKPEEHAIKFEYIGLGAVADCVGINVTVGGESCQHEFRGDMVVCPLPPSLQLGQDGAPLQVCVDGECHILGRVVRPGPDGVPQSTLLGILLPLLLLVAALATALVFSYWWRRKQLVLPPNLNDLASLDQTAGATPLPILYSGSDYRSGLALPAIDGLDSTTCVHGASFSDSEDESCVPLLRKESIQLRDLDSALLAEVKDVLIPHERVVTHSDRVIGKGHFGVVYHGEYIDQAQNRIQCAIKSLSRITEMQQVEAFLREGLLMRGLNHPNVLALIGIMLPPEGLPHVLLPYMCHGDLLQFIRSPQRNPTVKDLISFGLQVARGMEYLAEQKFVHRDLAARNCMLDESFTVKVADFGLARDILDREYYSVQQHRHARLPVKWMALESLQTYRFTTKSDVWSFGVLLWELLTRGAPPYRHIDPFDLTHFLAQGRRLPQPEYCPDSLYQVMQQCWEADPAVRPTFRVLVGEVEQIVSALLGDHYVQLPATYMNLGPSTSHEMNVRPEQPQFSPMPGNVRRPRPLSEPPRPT

[9] = target: T5, Serine/threonine-protein kinase TBK1 (Homo sapiens, UniProt Q9UHD2)
T5 sequence (Q9UHD2 whole entry): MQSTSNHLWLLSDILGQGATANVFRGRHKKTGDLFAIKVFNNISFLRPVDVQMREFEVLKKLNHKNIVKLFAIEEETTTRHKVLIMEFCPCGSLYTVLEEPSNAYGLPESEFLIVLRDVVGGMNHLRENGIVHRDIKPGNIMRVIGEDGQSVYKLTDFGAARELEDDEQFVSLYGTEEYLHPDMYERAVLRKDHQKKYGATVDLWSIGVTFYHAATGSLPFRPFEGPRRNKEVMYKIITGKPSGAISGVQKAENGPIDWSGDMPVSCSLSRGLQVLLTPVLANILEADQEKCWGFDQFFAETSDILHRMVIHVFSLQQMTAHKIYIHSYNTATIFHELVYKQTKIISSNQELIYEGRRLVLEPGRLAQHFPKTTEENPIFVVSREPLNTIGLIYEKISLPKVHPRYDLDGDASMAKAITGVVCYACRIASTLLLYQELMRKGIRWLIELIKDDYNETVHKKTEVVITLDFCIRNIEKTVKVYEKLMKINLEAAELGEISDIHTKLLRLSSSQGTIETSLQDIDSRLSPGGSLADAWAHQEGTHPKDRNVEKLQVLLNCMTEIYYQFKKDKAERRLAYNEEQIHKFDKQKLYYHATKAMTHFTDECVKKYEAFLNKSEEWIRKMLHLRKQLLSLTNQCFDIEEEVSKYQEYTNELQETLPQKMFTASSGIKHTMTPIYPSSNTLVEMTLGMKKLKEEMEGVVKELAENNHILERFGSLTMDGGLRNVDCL
Also: in the data inactive means no Kd found up to 30 µM.

Sequence of DnaJ homolog subfamily A member 1 (P31689 whole entry): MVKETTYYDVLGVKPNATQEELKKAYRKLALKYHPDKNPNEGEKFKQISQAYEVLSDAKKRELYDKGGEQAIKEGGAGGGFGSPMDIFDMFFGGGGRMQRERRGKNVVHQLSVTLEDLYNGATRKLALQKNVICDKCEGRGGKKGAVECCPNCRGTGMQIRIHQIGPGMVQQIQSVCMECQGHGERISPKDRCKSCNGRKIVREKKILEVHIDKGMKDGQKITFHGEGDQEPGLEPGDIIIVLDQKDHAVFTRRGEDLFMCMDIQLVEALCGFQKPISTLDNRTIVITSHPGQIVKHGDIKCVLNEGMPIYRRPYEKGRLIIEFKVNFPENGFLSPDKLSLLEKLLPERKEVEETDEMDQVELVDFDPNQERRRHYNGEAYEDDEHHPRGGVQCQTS

Structure (SMILES)	Kd [1]	Kd [3]	Kd [5]	Kd [7]	Kd [8]	Kd [9]	Kd [2]	Kd [4]	Kd [6]
CCN(CCCOc1ccc2c(Nc3cc(CC(=O)Nc4cccc(F)c4)n[nH]3)ncnc2c1)CCOP(=O)(O)O [BARASERTIB]	> 30 µM (inactive)	> 30 µM (inactive)	> 30 µM (inactive)				> 30 µM (inactive)	> 30 µM (inactive)	> 30 µM (inactive)
COc1cc2c(Oc3ccc4[nH]c(C)cc4c3F)ncnc2cc1OCCCN1CCCC1 [CEDIRANIB]	> 30 µM (inactive)	> 30 µM (inactive)	> 30 µM (inactive)						
COc1cc2c(N3CCN(C(=O)Nc4ccc(OC(C)C)cc4)CC3)ncnc2cc1OCCCN1CCCCC1 [TANDUTINIB]	> 30 µM (inactive)		> 30 µM (inactive)						
FC(F)(F)c1ccc(CNc2ccc(Cc3c[nH]c4ncc(Cl)cc34)cn2)cn1 [PEXIDARTINIB]	> 30 µM (inactive)		> 30 µM (inactive)	> 30 µM (inactive)	> 30 µM (inactive)	> 30 µM (inactive)	> 30 µM (inactive)	> 30 µM (inactive)	> 30 µM (inactive)
C=CC(=O)Nc1cccc(Nc2nc(Nc3ccc(N4CCN(C(C)=O)CC4)cc3OC)ncc2C(F)(F)F)c1 [ROCILETINIB]	> 30 µM (inactive)	> 30 µM (inactive)	> 30 µM (inactive)	> 30 µM (inactive)	> 30 µM (inactive)	> 30 µM (inactive)	> 30 µM (inactive)		> 30 µM (inactive)
N#CCNC(=O)c1ccc(-c2ccnc(Nc3ccc(N4CCOCC4)cc3)n2)cc1 [MOMELOTINIB]	> 30 µM (inactive)	> 30 µM (inactive)			> 30 µM (inactive)		> 30 µM (inactive)	> 30 µM (inactive)	
CC(C)CC(=O)Nc1[nH]nc2c1CN(C(=O)C1CCN(C)CC1)C2(C)C [PHA-793887]	> 30 µM (inactive)	> 30 µM (inactive)	> 30 µM (inactive)		> 30 µM (inactive)	> 30 µM (inactive)	> 30 µM (inactive)	> 30 µM (inactive)	> 30 µM (inactive)
C=CCn1c(=O)c2cnc(Nc3ccc(N4CCN(C)CC4)cc3)nc2n1-c1cccc(C(C)(C)O)n1 [ADAVOSERTIB]	> 30 µM (inactive)	> 30 µM (inactive)	> 30 µM (inactive)	> 30 µM (inactive)			> 30 µM (inactive)	> 30 µM (inactive)	> 30 µM (inactive)
CC1(C)CNc2cc(NC(=O)c3cccnc3NCc3ccncc3)ccc21 [MOTESANIB]	> 30 µM (inactive)	> 30 µM (inactive)	> 30 µM (inactive)						
Cn1cnc2c(F)c(Nc3ccc(Br)cc3Cl)c(C(=O)NOCCO)cc21 [SELUMETINIB]	> 30 µM (inactive)	> 30 µM (inactive)	> 30 µM (inactive)						
C[C@]1(O)C[C@@H](c2nc(-c3ccc4ccc(-c5ccccc5)nc4c3)c3c(N)nccn32)C1 [LINSITINIB]	> 30 µM (inactive)	> 30 µM (inactive)	> 30 µM (inactive)			> 30 µM (inactive)	> 30 µM (inactive)	> 30 µM (inactive)	> 30 µM (inactive)
O=S(=O)(c1cccc2cnccc12)N1CCCNCC1 [FASUDIL]	> 30 µM (inactive)	> 30 µM (inactive)	> 30 µM (inactive)	1.92 µM (active)			> 30 µM (inactive)		> 30 µM (inactive)
CN(c1ncccc1CNc1nc(Nc2ccc3c(c2)CC(=O)N3)ncc1C(F)(F)F)S(C)(=O)=O [PF-00562271]	> 30 µM (inactive)	> 30 µM (inactive)	> 30 µM (inactive)				> 30 µM (inactive)	> 30 µM (inactive)	> 30 µM (inactive)
COc1cc2nccc(Oc3ccc(NC(=O)C4(C(=O)Nc5ccc(F)cc5)CC4)cc3)c2cc1OC [CABOZANTINIB]	> 30 µM (inactive)	> 30 µM (inactive)	> 30 µM (inactive)	> 30 µM (inactive)		> 30 µM (inactive)	> 30 µM (inactive)	> 30 µM (inactive)	> 30 µM (inactive)
Cn1c(=O)n(-c2ccc(C(C)(C)C#N)cc2)c2c3cc(-c4cnc5ccccc5c4)ccc3ncc21 [DACTOLISIB]	> 30 µM (inactive)	> 30 µM (inactive)	> 30 µM (inactive)	> 30 µM (inactive)			> 30 µM (inactive)	> 30 µM (inactive)	> 30 µM (inactive)
CNC(=O)c1ccc(Nc2ncc(C(F)(F)F)c(NCc3nccnc3N(C)S(C)(=O)=O)n2)cc1 [DEFACTINIB]	> 30 µM (inactive)	> 30 µM (inactive)	> 30 µM (inactive)		> 30 µM (inactive)	> 30 µM (inactive)	> 30 µM (inactive)	> 30 µM (inactive)	> 30 µM (inactive)
CN(C)C/C=C/C(=O)Nc1cc2c(Nc3ccc(F)c(Cl)c3)ncnc2cc1O[C@H]1CCOC1 [AFATINIB]	> 30 µM (inactive)		> 30 µM (inactive)						

Now from value to molecule, other results behind:

Kd [1]	Kd [3]	Kd [5]	Kd [7]	Kd [8]	Kd [9]	Structure (SMILES)	Kd [2]	Kd [4]	Kd [6]
> 30 µM (inactive)		> 30 µM (inactive)	> 30 µM (inactive)	> 30 µM (inactive)	> 30 µM (inactive)	O=C(Nc1ccc(OC(F)(F)F)cc1)c1sccc1NCc1ccnc2ccccc12 [OSI-930]	> 30 µM (inactive)	> 30 µM (inactive)	> 30 µM (inactive)
> 30 µM (inactive)	> 30 µM (inactive)	> 30 µM (inactive)				C[C@@]1(C(=O)Nc2ccc(F)nc2)CCCN1c1nc(Nc2cc(C3CC3)n[nH]2)c2cccn2n1 [BMS-754807]			
> 30 µM (inactive)	> 30 µM (inactive)		> 30 µM (inactive)	> 30 µM (inactive)	> 30 µM (inactive)	CCOc1ccn(-c2ccc(F)cc2)c(=O)c1C(=O)Nc1ccc(Oc2ccnc(N)c2Cl)c(F)c1 [BMS-777607]		> 30 µM (inactive)	
